Assays:
[1] = tested on: pancreatic adenocarcinoma associated genes; experiment: TaqMan Array gene expression in MIAPaCa-2, normalized for GAPDH; format: cell-based, Human; settings: Mia-PACA-2, 24 hs, CBD 3.8, MLT 200, AKBA 7.5 micrograms/ml
Experimental: Total RNA from untreated or CBD, MLT, AKBA alone and in combination treated cell lines was extracted using Rneasy Mini kit (Qiagen, Milan, Italy). One microgram of total RNA from each sample was subjected to reverse transcription in a total volume of 20 μL using the High-Capacity cDNA Archive Kit (Applied Biosystem, Foster City, […], USA) according to the instructions. cDNAs were analyzed by qRT-PCR performed using an IQ5 Multicolor Real time PCR Detection system. Quantitative real-time gene expression was performed with the TaqMan® Array Human Pancreatic Adenocarcinoma 96-well Plate, containing 92 assays to pancreatic adenocarcinoma associated genes and 4 assays to candidate endogenous control genes, was purchased (Thermo Fisher, Grand Island, NY, USA) and used to evaluate the treatments in modulating PDAC-related genes (Table 1). Measurement of different housekeeping genes (GAPDH; HPRT1; GUSB) on the samples was used to normalize mRNA content. The gene expression levels of treated cell lines were expressed as relative fold compared with untreated or vehicle-treated cells.
To elucidate the molecular events induced by CBD, MLT and AKBA alone and in combination, 92 genes involved in PDAC progression and aggressiveness were evaluated by Taqman Array. Both cell lines were treated with CBD, MLT and AKBA alone and in combination, and the molecular pathways of PDAC associated gene were evaluated.
Target mRNA levels were normalized for GAPDH expression.

MIAPaCa-2 cell line = experiment: Cytotoxicity assay (MTT, 72 hours, daily administration) in MIAPaCa-2; settings: Homo sapiens, MIA PaCa-2, read-out: % VIABILITY ± S.D.
Experimental: Human pancreatic ductal adenocarcinoma (PANC-1 and MIAPaCa-2) cell lines were purchased by Sigma Aldrich (Milan, Italy) and cultured in DMEM high glucose medium (EuroClone, Milan, Italy) supplemented with 10% of fetal bovine serum (FBS), 2 mM L-glutamine, 100 IU/mL penicillin, 100 mg streptomycin and 1 mM sodium pyruvate. Cell lines were maintained at 37° C. with 5% CO2 and 95% of humidity.
3×10^4 cells/mL were seeded in 96-well plates in a final volume of 100 L/well. After one day of incubation, compounds or vehicles, alone or in combination, were added and six replicates were used for each treatment and all experiments were repeated three times. In all the experiments, the treatment was daily added, after washing with fresh medium. After 72 hours cell viability was investigated by adding 0.8 mg/mL of 3-[4,5-dimethylthiazol-2-yl]-2,5 diphenyl tetrazolium bromide (MTT) (Sigma Aldrich) to the media. After 3 h the supernatant was removed, and the pellet of salt crystals was solubilized with 100 μL/well of DMSO. The absorbance of the sample against a background control was measured at 570 nm using an ELISA reader microliter plate (BioTek Instruments, Winooski, VT, USA).
Cytotoxicity in PDAC cell lines: The effect of CBD, MLT and AKBA in reducing cell viability was evaluated at 72 hours, post daily administration, in PDAC cell lines. Cells were treated with different doses of CBD, MLT and AKBA (up to 1 mg) and percentage of cell viability was evaluated by the MTT assay. […] The compounds were administered daily for 72 hours, as in previous experiments at the desired doses. […] MTT assay was used to analyse the cell cytotoxicity.

[2] = normalized for GAPDH, Akt pathways
[3] = normalized for GAPDH, Akt-pathways
[4] = normalized for GAPDH, DNA repair
[5] = normalized for GAPDH, NfkB pathways
[6] = normalized for GAPDH, Ras pathways
[7] = normalized for GAPDH, TGF patways
[8] = normalized for GAPDH, TGF-patways
[9] = normalized for GAPDH, angiogenesis
[10] = normalized for GAPDH, apoptosis
[11] = normalized for GAPDH, cell cycle
[12] = normalized for GAPDH, inflammation
[13] = normalized for GAPDH, proliferation

C=C(C)[C@@H]1CCC(C)=C[C@H]1c1c(O)cc(CCCCC)cc1O [CBD, 2-[(1R,6R)-3-methyl-6-prop-1-en-2-ylcyclohex-2-en-1-yl]-5-pentylbenzene-1,3-diol]
GAPDH relative expression ([1]; GAPDH is the normalizer): 1.00 | PK3CB relative expression [1, 2]: 0.10 | PK3CD relative expression [1, 2]: 0.08 | AKT1 relative expression [1, 3]: 0.10 | AKT2 relative expression [1, 3]: 0.54 | AKT3 relative expression [1, 3]: 0.00 | IGF1 relative expression [1, 3]: 0.00 | PK3CA relative expression [1, 3]: 0.03 | PK3R1 relative expression [1, 3]: 0.04 | BRCA2 relative expression [1, 4]: 0.16 | MDM2 relative expression [1, 4]: 0.04 | TP53 relative expression [1, 4]: 0.22 | HSP90AA1 relative expression ([1]; normalized for GAPDH, Heat sock protein): 0.42 | NFKB1 relative expression [1, 5]: 0.04 | NFKB2 relative expression [1, 5]: 0.15 | REL relative expression [1, 5]: 0.11 | RELA relative expression [1, 5]: 0.06 | RELB relative expression [1, 5]: 0.26 | RHOA relative expression [1, 5]: 0.34 | RHOB relative expression [1, 5]: 0.04 | BRAF relative expression [1, 6]: 0.22 | E2F1 relative expression [1, 6]: 0.15 | E2F3 relative expression [1, 6]: 0.08 | E2F4 relative expression [1, 6]: 0.19 | EGF relative expression [1, 6]: 0.00 | EGFR relative expression [1, 6]: 0.21 | ELK1 relative expression [1, 6]: 0.09 | ERBB2 relative expression [1, 6]: 0.02 | GRB2 relative expression [1, 6]: 0.13 | HBEGF relative expression [1, 6]: 0.13 | KRAS relative expression [1, 6]: 0.09 | MAP2K1 relative expression [1, 6]: 0.00 | MAP2K2 relative expression [1, 6]: 0.08 | MAPK1 relative expression [1, 6]: 0.07 | MAPK3 relative expression [1, 6]: 0.01 | RAF1 relative expression [1, 6]: 0.01 | RB1 relative expression [1, 6]: 0.06 | SOS1 relative expression [1, 6]: 0.06 | TGFB2 relative expression [1, 7]: 0.08 | TGFB3 relative expression [1, 7]: 0.00 | TGFBR1 relative expression [1, 7]: 0.02 | SMAD2 relative expression [1, 8]: 0.06 | SMAD3 relative expression [1, 8]: 0.18 | SMAD4 relative expression [1, 8]: 0.07 | TGFA relative expression [1, 8]: 0.64 | TGFB1 relative expression [1, 8]: 0.06 | TGFBR2 relative expression [1, 8]: 0.00 | FIGF relative expression [1, 9]: 0.11 | VEGFA relative expression [1, 9]: 0.02 | VEGFB relative expression [1, 9]: 0.06 | VEGFC relative expression [1, 9]: 0.03 | BCL2L1 relative expression [1, 10]: 0.26 | BCL2 relative expression [1, 10]: 0.00 | BIRC5 relative expression [1, 10]: 0.11 | CCNA2 relative expression [1, 11]: 0.01 | CCNB1 relative expression [1, 11]: 0.37 | CCND1 relative expression [1, 11]: 0.11 | CCND2 relative expression [1, 11]: 0.00 | CCNE1 relative expression [1, 11]: 0.10 | CCNE2 relative expression [1, 11]: 0.12 | CDC42 relative expression [1, 11]: 0.05 | CDK2 relative expression [1, 11]: 0.15 | CDK4 relative expression [1, 11]: 0.25 | CDKN1A relative expression [1, 11]: 0.04 | CDKN1B relative expression [1, 11]: 0.11 | CDKN2A relative expression [1, 11]: 0.26 | CDKN2B relative expression [1, 11]: 0.42 | CDKN2C relative expression [1, 11]: 0.03 | CDKN2D relative expression [1, 11]: 0.04 | IL6 relative expression [1, 12]: 0.00 | JAK1 relative expression [1, 12]: 0.27 | JAK2 relative expression [1, 12]: 0.01 | JAK3 relative expression [1, 12]: 0.01 | STAT1 relative expression [1, 12]: 0.11 | STAT2 relative expression [1, 12]: 0.04 | STAT3 relative expression [1, 12]: 0.06 | STAT6 relative expression [1, 12]: 0.79 | STATSB relative expression [1, 12]: 0.03 | MMP1 relative expression ([1]; normalized for GAPDH, invasion): 0.00 | MMP2 relative expression ([1]; normalized for GAPDH, invasion): 0.07 | MMP3 relative expression ([1]; normalized for GAPDH, invasion): 0.00 | MMP7 relative expression ([1]; normalized for GAPDH, invasion): 0.01 | MMP9 relative expression ([1]; normalized for GAPDH, invasion): 0.01 | PTGS2 relative expression ([1]; normalized for GAPDH, invasion): 0.00 | RAC1 relative expression ([1]; normalized for GAPDH, invasion): 0.11 | RAC2 relative expression ([1]; normalized for GAPDH, invasion): 0.01 | KIT relative expression [1, 13]: 0.00 | NOTCH1 relative expression [1, 13]: 0.02 | SRC relative expression [1, 13]: 0.03 | viability at 1.9 µg/mL (MIAPaCa-2 cell line): 74.8 ± 7.2% | viability at 3.8 µg/mL (MIAPaCa-2 cell line): 29.5 ± 1.9% | viability at 7.6 µg/mL (MIAPaCa-2 cell line): 9.2 ± 0.4% | viability at 15.2 µg/mL (MIAPaCa-2 cell line): 5.2 ± 0.4%

From patent US20240180872A1, “METHODS AND COMPOUNDS OF CANNABIDIOL, MELATONIN AND AKBA FOR TREATING PANCREATIC CANCER” (priority 2021, published 2024)
